Assay results from ChEMBL document CHEMBL5712891, “Inhibition of BET bromodomain-dependent XIAP and FLIP expression sensitizes KRAS-mutated NSCLC to pro-apoptotic agents” (Cell Death Dis, 2016).
Activity calls are given as the source filed them. The calls are words filed in the database; no cut-off is given here.

Assays:
A549 [1] = assay: Induction of cell cycle arrest in human A549 cells assessed as accumulation of cells at S phase at 0.1 uM for 24 hrs by Click-iT EdU Alexa Fluor 647 flow cytometric assay kit analysis (reference value: 35%); format: functional
NCI-H1373 [2] = assay: Induction of cell cycle arrest in human NCI-H1373 cells assessed as accumulation of cells at S phase at 0.25 uM for 24 hrs by Click-iT EdU Alexa Fluor 647 flow cytometric assay kit analysis (reference value: 45%); format: functional
NCI-H1373 [3] = assay: Induction of apoptosis in human NCI-H1373 cells assessed as viable cells at 0.5 uM for 24 hrs by annexin V-PI staining based flow cytometric analysis (reference value: 77.7%); format: functional; settings: read-out: Activity
NCI-H1373 [4] = assay: Induction of apoptosis in human NCI-H1373 cells assessed as necrotic cells at 0.5 uM for 24 hrs by annexin V-PI staining based flow cytometric analysis (reference value: 5.5%); format: functional
NCI-H1373 [5] = assay: Antitumor activity against human NCI-H1373 cells xenografted in SCID mouse assessed as tumor weight ratio to control at 50 mg/kg, ip measured on after 15 days relative to control; format: functional; settings: time 15 day
NCI-H1792 = assay: Downregulation of XIAP mRNA expression level in human NCI-H1792 cells at 0.1 to 1 uM for 24 hrs by qRT-PCR analysis; format: functional, cell-based; settings: dose 0.1-1 µM
A549 [6] = assay: Downregulation of XIAP mRNA expression level in human A549 cells at 0.1 to 1 uM for 24 hrs by qRT-PCR analysis; format: functional, cell-based; settings: dose 0.1-1 µM
NCI-H2347 = assay: Downregulation of XIAP mRNA expression level in human NCI-H2347 cells at 0.1 to 1 uM for 24 hrs by qRT-PCR analysis; format: functional, cell-based; settings: dose 0.1-1 µM
A549 [7] = assay: Downregulation of FLIP mRNA expression level in human A549 cells at 0.1 to 1 uM for 24 hrs by qRT-PCR analysis; format: functional, cell-based; settings: dose 0.1-1 µM
DV-90 [8] = assay: Downregulation of C-MYC mRNA expression level in human DV-90 cells at 0.1 to 1 uM for 24 hrs by qRT-PCR analysis; format: functional, cell-based; settings: dose 0.1-1 µM
DV-90 [9] = assay: Downregulation of c-MYC protein expression level in human DV-90 cells at 1 uM for 24 hrs by […] analysis; format: functional, cell-based
A549 [10] = assay: Induction of apoptosis in human A549 cells assessed as late apoptotic cells at 1 uM by annexin V-PI based flow cytometric analysis (reference value: 2.5%); format: functional
DV-90 [11] = assay: Induction of cell cycle arrest in human DV-90 cells assessed as accumulation of cells at G2/M phase at 1 uM for 24 hrs by Click-iT EdU Alexa Fluor 647 flow cytometric assay kit analysis (reference value: 25%); format: functional
NCI-H1373 [12] = assay: Induction of cell cycle arrest in human NCI-H1373 cells assessed as accumulation of cells at G0/G1 phase at 1 uM for 24 hrs by Click-iT EdU Alexa Fluor 647 flow cytometric assay kit analysis (reference value: 45%); format: functional
NCI-H1373 [13] = assay: Induction of cell cycle arrest in human NCI-H1373 cells assessed as accumulation of cells at G0/G1 phase at 0.5 uM for 24 hrs by Click-iT EdU Alexa Fluor 647 flow cytometric assay kit analysis (reference value: 48%); format: functional
DV-90 [14] = assay: Induction of cell cycle arrest in human DV-90 cells assessed as accumulation of cells at G0/G1 phase at 1 uM for 24 hrs by Click-iT EdU Alexa Fluor 647 flow cytometric assay kit analysis (reference value: 47%); format: functional
A549 [15] = assay: Induction of apoptosis in human A549 cells assessed as early apoptotic cells at 2.5 uM for 24 hrs by annexin V-PI staining based flow cytometric analysis (reference value: 0.2%); format: functional
NCI-H1373 [16] = assay: Induction of apoptosis in human NCI-H1373 cells assessed as late apoptotic cells at 0.5 uM for 24 hrs by annexin V-PI staining based flow cytometric analysis (reference value: 22.3%); format: functional
NCI-H1373 [17] = assay: Induction of apoptosis in human NCI-H1373 cells assessed as late apoptotic cells at 2.5 uM for 24 hrs by annexin V-PI staining based flow cytometric analysis (reference value: 22.3%); format: functional
DV-90 [18] = assay: Induction of apoptosis in human DV-90 cells assessed as viable cells at 2.5 uM for 48 hrs by annexin V-PI staining based flow cytometric analysis (reference value: 81.9%); settings: DV-90, 48 h
DV-90 [19] = assay: Induction of apoptosis in human DV-90 cells assessed as early apoptotic cells at 0.5 uM for 48 hrs by annexin V-PI staining based flow cytometric analysis (reference value: 1.0%)

Cc1sc2c(c1C)C(c1ccc(Cl)cc1)=N[C@@H](CC(=O)OC(C)(C)C)c1nnc(C)n1-2
Activity (A549 [1]): 36% | Activity (NCI-H1373 [2]): 21% | viability at 0.5 µM (NCI-H1373 [3]): 64.3% | Activity (NCI-H1373 [4]): 13% | T/C (NCI-H1373 [5]): 32% | Activity (NCI-H1792): Active | Activity (A549 [6]): Active | Activity (NCI-H2347): Active | Activity (A549 [7]): Active | Activity (DV-90 [8]): Active | Activity (DV-90 [9]): Active | Activity (A549 [10]): 1.2%

CCNC(=O)C[C@@H]1N=C(c2ccc(Cl)cc2)c2cc(OC)ccc2-n2c(C)nnc21 [MOLIBRESIB]
Activity (DV-90 [11]): 27% | Activity (NCI-H1373 [12]): 50% | Activity (NCI-H1373 [13]): 73%

Cc1sc2c(c1C)C(c1ccc(Cl)cc1)=N[C@@H](CC(=O)Nc1ccc(O)cc1)c1nnc(C)n1-2 [BIRABRESIB]
Activity (DV-90 [14]): 60% | Activity (A549 [15]): 0.1% | Activity (NCI-H1373 [16]): 20.5% | Activity (NCI-H1373 [17]): 20.3% | viability at 2.5 µM (DV-90 [18]): 49.4% | Activity (DV-90 [19]): 2.8%
